Assay [1] concerns the target Dual specificity protein kinase CLK3 (Homo sapiens, UniProt P49761). Description: Selectivity interaction (KinomeScan (DiscoverX)) EUB0000607a CLK3. The following applies: at 10 µM.
Assay [2] has as its target T1, Serine/threonine-protein kinase PAK 4 (Homo sapiens, UniProt O96013). The experiment in a line: Selectivity interaction (KinomeScan (DiscoverX)) EUB0000607a PAK4. The following applies: at 10 µM.
The target in assay [3] is T1, Serine/threonine-protein kinase PAK 4. The following applies: at 10 µM.
The test system of assay [4] is Epidermal growth factor receptor (Homo sapiens), P00533 [G719C]. The experiment in a line: Selectivity interaction (KinomeScan (DiscoverX)) EUB0000229b EGFR. The following applies: at 1 µM.
Epidermal growth factor receptor (Homo sapiens), P00533 [G719C], sequence (P00533 whole entry G719C): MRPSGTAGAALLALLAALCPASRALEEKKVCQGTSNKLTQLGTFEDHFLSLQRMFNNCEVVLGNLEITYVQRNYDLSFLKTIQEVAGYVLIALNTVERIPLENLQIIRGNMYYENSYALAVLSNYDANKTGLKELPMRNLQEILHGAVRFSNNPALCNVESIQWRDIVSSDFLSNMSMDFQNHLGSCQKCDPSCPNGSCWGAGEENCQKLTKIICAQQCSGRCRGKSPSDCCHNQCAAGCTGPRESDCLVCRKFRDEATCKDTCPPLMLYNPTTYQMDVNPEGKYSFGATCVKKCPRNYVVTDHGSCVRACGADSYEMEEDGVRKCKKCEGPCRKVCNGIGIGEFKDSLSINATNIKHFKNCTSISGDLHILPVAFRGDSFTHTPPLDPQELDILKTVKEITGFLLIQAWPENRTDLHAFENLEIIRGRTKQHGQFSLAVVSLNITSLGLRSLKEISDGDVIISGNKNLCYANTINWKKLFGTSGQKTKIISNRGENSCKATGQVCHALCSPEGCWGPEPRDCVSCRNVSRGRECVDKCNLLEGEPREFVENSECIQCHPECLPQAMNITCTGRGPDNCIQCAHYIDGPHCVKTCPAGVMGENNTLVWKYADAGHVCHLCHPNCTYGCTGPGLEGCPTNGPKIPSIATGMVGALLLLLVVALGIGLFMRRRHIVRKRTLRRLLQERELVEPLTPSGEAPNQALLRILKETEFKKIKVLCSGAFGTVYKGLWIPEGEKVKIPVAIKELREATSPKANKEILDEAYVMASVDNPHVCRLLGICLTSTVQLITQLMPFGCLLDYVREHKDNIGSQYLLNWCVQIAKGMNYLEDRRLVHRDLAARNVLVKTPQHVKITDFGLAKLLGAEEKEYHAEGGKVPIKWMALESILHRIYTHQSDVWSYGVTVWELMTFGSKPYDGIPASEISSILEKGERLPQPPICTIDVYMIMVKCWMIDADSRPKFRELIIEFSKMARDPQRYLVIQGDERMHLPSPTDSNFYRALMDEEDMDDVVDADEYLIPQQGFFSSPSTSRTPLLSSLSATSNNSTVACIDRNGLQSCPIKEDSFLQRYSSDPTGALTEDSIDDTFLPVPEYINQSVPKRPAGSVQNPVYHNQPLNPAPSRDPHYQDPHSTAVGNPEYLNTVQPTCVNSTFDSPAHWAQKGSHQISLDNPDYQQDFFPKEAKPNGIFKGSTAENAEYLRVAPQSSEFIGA
Assay [5] deals with 5-hydroxytryptamine receptor 6 (Homo sapiens) (UniProt P50406). Description: Selectivity interaction (GPCR panel (PDSP screen)) EUB0001079a HTR6. Conditions: at 10 µM.
5-hydroxytryptamine receptor 6 (Homo sapiens), sequence (P50406 whole entry): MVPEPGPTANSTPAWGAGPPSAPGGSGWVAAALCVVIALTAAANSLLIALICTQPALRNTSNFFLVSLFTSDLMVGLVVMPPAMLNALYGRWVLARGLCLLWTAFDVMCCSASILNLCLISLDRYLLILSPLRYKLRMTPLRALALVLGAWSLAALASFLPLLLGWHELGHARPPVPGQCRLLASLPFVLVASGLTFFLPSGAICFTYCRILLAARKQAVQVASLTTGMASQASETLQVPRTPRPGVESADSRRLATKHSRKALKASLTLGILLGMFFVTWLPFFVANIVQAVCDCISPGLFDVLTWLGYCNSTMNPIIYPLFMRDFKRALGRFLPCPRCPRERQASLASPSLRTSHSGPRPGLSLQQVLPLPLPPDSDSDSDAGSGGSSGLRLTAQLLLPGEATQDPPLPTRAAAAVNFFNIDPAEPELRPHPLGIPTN
For assay [6], the target named is T2, Phosphatidylinositol 5-phosphate 4-kinase type-2 beta (Homo sapiens) (UniProt P78356).
T2 sequence (whole entry): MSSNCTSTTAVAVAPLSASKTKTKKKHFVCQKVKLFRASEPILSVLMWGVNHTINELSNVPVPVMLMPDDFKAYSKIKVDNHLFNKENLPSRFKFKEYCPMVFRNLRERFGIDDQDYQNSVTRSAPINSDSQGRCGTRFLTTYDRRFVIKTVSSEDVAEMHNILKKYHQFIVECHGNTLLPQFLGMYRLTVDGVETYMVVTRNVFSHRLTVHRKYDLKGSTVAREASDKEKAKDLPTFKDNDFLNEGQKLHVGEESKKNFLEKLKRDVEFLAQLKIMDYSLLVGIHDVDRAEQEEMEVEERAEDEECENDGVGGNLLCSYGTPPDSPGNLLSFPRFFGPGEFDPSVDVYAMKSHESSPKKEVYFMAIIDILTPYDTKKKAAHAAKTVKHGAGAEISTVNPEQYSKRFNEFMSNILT
The experiment in a line: Selectivity interaction (ActivX KiNativ screen (ex vivo kinase selectivity in human PBMCs)) EUB0001619a PIP4K2B. The class given is cell-based. The following applies: PBMC, at 1 µM.

The target of assay [7] is T3, Serine/threonine-protein kinase BRSK2 (Homo sapiens) (UniProt Q8IWQ3).
T3 sequence (whole entry): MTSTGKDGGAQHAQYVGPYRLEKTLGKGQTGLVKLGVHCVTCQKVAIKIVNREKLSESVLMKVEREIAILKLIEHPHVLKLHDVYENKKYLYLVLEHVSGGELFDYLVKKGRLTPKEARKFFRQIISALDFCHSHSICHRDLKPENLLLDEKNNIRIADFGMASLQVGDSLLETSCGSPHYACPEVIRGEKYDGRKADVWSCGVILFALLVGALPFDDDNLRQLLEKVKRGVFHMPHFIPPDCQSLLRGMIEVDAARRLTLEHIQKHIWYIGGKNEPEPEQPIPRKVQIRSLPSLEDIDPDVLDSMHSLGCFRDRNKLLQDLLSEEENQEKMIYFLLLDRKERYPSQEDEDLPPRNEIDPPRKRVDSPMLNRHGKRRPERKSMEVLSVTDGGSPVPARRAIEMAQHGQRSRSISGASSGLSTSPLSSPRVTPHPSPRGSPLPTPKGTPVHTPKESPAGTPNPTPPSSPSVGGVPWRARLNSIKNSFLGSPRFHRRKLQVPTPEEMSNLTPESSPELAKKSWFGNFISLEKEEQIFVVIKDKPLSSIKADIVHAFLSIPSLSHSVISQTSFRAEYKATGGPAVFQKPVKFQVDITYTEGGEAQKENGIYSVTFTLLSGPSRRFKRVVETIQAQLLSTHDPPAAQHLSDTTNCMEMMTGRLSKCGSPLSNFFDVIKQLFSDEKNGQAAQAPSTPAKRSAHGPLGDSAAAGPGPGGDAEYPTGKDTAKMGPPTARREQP
Description: Selectivity interaction (Kinase screening (Nanosyn)) EUB0000604a BRSK2.

The target in assay [8] is T4, Tyrosine-protein kinase ITK/TSK (Homo sapiens) (UniProt Q08881).
T4 sequence (whole entry): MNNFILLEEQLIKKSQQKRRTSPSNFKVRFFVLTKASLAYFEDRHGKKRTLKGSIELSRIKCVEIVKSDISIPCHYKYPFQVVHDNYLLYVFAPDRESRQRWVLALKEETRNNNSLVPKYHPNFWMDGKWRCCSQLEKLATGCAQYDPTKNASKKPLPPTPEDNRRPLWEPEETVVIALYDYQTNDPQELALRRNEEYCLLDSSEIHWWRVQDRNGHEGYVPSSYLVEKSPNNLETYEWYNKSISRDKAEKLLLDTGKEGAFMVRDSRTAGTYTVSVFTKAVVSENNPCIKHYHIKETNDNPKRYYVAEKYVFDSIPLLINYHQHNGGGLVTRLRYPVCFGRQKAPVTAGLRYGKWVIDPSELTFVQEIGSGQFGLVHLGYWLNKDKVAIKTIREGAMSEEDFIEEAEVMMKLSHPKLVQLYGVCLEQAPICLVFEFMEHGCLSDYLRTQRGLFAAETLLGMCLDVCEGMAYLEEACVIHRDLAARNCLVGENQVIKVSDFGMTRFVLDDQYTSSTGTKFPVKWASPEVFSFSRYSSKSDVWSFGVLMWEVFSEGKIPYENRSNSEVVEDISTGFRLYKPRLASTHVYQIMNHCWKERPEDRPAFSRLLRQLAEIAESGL
The experiment in a line: Selectivity interaction (ProQinase) EUB0000171b ITK.

The target in assay [9] is Calcium/calmodulin-dependent protein kinase kinase 1 (Homo sapiens) (UniProt Q8N5S9). Description: Selectivity interaction (KinomeScan (DiscoverX)) EUB0000092b CAMKK1. The following applies: at 10 µM.
Calcium/calmodulin-dependent protein kinase kinase 1 (Homo sapiens), sequence (Q8N5S9 whole entry, looked up): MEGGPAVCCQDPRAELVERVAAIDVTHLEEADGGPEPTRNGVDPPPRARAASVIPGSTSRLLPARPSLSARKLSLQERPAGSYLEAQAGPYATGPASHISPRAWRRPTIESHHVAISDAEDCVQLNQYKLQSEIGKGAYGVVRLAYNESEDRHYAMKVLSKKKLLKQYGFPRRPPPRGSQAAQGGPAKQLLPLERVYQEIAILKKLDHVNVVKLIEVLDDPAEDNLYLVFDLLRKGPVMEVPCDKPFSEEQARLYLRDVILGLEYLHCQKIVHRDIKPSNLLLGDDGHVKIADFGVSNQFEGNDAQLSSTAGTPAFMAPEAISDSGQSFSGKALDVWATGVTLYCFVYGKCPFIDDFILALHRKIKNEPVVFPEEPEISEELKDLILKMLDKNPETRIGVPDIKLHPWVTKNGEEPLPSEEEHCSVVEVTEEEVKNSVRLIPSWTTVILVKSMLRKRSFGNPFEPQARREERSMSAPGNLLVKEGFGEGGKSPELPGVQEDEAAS
Assay [10] concerns the target T5, 3-phosphoinositide-dependent protein kinase 1 (Homo sapiens) (UniProt O15530).
T5 sequence (whole entry): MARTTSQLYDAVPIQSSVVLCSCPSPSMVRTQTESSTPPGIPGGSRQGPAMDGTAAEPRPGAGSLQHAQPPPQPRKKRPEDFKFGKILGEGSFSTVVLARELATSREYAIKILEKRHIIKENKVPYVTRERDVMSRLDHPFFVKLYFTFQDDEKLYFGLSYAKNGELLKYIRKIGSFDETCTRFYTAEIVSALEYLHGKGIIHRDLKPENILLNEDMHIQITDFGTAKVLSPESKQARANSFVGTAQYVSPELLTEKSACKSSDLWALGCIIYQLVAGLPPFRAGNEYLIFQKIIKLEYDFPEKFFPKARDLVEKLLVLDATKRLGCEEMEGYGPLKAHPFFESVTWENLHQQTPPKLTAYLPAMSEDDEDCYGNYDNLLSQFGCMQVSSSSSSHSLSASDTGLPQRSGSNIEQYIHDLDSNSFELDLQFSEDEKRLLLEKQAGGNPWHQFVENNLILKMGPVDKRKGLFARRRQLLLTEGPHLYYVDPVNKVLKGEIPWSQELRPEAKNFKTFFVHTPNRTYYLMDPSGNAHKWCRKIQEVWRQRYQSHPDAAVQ
The experiment in a line: Selectivity interaction (KinomeScan (DiscoverX)) EUB0000092b PDPK1. The following applies: at 10 µM.

Assay [11] concerns the target Serine/threonine-protein kinase SIK3 (Homo sapiens) (UniProt Q9Y2K2). The experiment in a line: Selectivity interaction (KinomeScan (DiscoverX)) EUB0000045b SIK3.

T1 sequence (O96013 whole entry, looked up): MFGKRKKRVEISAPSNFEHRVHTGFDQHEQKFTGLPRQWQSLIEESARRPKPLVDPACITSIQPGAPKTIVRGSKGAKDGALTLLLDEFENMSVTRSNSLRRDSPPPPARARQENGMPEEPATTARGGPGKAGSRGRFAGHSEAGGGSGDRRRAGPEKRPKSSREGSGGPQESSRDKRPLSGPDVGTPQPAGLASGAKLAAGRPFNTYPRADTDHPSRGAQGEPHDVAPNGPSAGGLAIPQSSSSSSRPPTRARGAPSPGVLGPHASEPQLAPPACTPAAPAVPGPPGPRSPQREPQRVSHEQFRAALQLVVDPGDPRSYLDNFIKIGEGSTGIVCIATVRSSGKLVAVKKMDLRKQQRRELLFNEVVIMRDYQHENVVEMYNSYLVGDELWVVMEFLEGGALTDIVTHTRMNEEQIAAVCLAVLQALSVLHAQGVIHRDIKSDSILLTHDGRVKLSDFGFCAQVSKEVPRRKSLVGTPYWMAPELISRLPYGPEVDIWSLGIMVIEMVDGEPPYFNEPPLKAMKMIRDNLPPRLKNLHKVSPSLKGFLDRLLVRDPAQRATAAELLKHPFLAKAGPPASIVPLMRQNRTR
Serine/threonine-protein kinase SIK3 (Homo sapiens), sequence (Q9Y2K2 whole entry, looked up): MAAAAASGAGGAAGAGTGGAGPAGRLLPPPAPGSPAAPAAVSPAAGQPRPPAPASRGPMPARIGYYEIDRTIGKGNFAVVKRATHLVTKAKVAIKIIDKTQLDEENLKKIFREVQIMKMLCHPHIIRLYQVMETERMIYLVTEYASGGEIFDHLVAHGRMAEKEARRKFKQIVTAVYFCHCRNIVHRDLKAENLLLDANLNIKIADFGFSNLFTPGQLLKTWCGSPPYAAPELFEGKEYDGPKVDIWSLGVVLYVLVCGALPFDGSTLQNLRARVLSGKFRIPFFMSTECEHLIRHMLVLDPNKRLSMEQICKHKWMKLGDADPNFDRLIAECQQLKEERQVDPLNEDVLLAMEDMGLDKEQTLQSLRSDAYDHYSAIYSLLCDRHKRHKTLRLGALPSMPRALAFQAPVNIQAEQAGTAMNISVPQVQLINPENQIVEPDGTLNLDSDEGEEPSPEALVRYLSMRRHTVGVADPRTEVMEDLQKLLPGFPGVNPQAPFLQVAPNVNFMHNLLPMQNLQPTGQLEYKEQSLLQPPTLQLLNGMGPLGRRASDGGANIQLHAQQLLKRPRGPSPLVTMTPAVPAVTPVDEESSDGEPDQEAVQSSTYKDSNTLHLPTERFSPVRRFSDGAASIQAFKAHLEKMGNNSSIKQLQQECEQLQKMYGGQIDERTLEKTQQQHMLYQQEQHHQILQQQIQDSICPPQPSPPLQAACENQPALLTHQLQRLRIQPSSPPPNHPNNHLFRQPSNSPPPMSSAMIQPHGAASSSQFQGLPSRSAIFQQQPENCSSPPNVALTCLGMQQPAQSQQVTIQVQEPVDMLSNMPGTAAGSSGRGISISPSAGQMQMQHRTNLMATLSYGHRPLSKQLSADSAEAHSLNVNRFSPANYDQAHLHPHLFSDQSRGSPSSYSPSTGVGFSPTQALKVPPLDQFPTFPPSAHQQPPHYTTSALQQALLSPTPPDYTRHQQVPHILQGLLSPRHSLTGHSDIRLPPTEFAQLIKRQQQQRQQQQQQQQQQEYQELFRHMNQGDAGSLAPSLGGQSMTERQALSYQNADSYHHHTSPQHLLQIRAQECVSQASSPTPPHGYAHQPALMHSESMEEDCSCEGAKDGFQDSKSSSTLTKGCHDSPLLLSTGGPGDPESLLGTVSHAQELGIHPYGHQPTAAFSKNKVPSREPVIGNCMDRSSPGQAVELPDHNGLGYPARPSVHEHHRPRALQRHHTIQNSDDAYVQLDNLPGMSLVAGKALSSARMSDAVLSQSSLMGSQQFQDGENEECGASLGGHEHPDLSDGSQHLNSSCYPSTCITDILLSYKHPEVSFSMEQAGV
Dual specificity protein kinase CLK3, sequence (P49761 whole entry, looked up): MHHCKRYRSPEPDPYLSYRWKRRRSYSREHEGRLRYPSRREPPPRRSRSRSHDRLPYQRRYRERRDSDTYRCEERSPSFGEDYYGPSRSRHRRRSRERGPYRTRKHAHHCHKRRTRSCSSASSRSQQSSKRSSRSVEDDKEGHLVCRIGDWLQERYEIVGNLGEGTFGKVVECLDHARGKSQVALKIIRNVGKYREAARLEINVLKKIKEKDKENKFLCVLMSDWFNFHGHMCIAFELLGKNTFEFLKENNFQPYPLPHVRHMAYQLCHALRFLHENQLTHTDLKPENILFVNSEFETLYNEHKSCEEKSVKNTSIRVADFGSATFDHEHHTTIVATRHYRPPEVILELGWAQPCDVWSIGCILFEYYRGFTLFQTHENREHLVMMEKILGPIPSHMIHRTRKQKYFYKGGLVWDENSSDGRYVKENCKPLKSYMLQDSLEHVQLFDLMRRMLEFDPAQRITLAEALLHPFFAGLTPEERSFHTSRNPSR

For the compound `CNC(=O)Nc1ccc(-c2nc(N3CC4CCC(C3)O4)c3cnn(C4CCC5(CC4)OCCO5)c3n2)cc1`, the % of control came out at 31% in assay [1] and 100% in [2].

As to `Cc1cc([C@@H](C)Nc2ccccc2C(=O)O)c2nc(N3CCOCC3)cc(=O)n2c1` [AZD-6482], the % of control in assay [3] worked out at 100%.

In the case of `COc1cc(N(C)c2ccnc3ccc(C(F)(F)F)cc23)cc(OC)c1OC`, the % binding in [4] was determined as 92%.

For `Nc1cnc(N2CCc3cc(S(=O)(=O)Nc4c(F)cc(Cl)cc4F)cc(N4CCCC4=O)c32)nc1` [TP-020n], the % of inhibition in assay [5] was -26.7%.

Turning to `N#Cc1cccc(-c2c[nH]c3ncnc(N4CCOCC4)c23)c1`, in assay [6], the % of inhibition came out at 16%.

Turning to `Cc1cnc(Nc2ccc(F)cc2Cl)nc1-c1c[nH]c(C(=O)N[C@H](CO)c2cccc(Cl)c2)c1`, the % of inhibition in assay [7] is 2%.

Turning to `C=CC(=O)Nc1cccc(C(=O)Nc2ccc(Nc3cc(-c4[nH]c(SC)nc4C)ccn3)cc2)c1`, the % of control in [8] (at 1 µM) amounted to 95%; in assay [8] (at 5 µM) it was 81%.

As to `CCC(=O)N1CCN(c2ccc(-n3c(=O)ccc4cnc5ccc(-c6cnc7ccccc7c6)cc5c43)cc2C(F)(F)F)CC1`, the % of control in [9] came out at 80%; in assay [10], 100%.

For the compound `C=CC(=O)Nc1cc(-n2c(=O)ccc3cnc4ccc(-c5ccc(NS(C)(=O)=O)cc5)cc4c32)ccc1C`, the % of control in assay [11] (at 1 µM) and in assay [11] (at 10 µM) was 100% in each case.

The values above are taken from ChEMBL document CHEMBL5465560, “Selectivity Literature for EUbOPEN Chemogenomic Library” (2024).
